Measurements published in patent publication US20130072531A1, “SOLID DISPERSION COMPRISING AN ANTI-HIV AGENT” (AiCuris GmbH & Co. KG, priority 2009, published 2013).

Experiments:
[1] = Solubility studies: dissolution, paddle method, sodium laurylsulphate 0.5% (w/v) medium; type: physicochemical
Method: The compound of formula (I) both in crystalline form and spray dried (at T0 and after 3 weeks […]) storage at 25° C., 60% RH and 40° C., 75% RH respectively) as well as the solid dispersions of Examples 1 to 4 (at T0 and after 2 weeks […]) storage at 25° C., 60% RH and 40° C., 75% RH respectively) and Example 5 at T0 only were introduced in a VK 7000 dissolution system (VanKel, New Jersey, USA), using the paddle method, combined with a VK 8000 automatic sampling station (n=3). Sodium laurylsulphate 0.5% (w/v) was used as dissolution medium. The temperature of the medium (900 ml) was kept at 37±0.5 ° C., while the rotational speed of the paddles was set at 100 rpm. Samples (filtered using Full Flow Filters (Varian) -35 μm) of 5 ml were withdrawn at 5, 10, 15, 20, 30, 45 and 60 min and spectrophotometrically analysed at 240 nm by UV-spectrophotometry, type UV-1650 (Shimadzu, Deurne, Belgium) (w/w dilution if necessary), using an appropriate calibration curve. Each vessel contained approximately 150 mg of the compound of formula (I).

[2] = tested on: wild-type and resistant HIV strains; assay: Activity against HIV strains (experiences so far)
[3] = Water solubility of crystals (experiences so far); type: physicochemical
[4] = X-ray diffraction of solid dispersions at T0 and after storage; type: physicochemical; conditions: after 3 weeks at 40° C., 75% RH
Method: The spray dried particles were collected in a reservoir attached to a cyclone, cooled down to room temperature and stored in sealed vials (room temperature, ambient relative humidity (RH)) prior to their characterisation at T0. After characterisation at T0, the spray dried solids were stored in open vials for 2 weeks (3 weeks for Comparative Example 1) in desiccators at 25° C., 60% RH and 40° C., 75% RH. X-ray diffraction (D-500, Siemens, Germany) with CuKα radiation (0.154 nm) was performed on physical mixtures of the compound of formula (I) with HPMC ES, HPC LF, HPMCP HP-50 and PVP K30 and the corresponding solid dispersions (at T0 and after 2 weeks […]) storage at both conditions), as well as spray dried compound of formula (I) without polymer (storage for three weeks under the two conditions). The angular range (2θ) varied from 15 to 60° with steps of 0.02° and the measuring time was 1 s/step.

[5] = Storage experiments, visual inspection; type: physicochemical; conditions: open vials, 2 weeks (3 weeks Comparative Example 1), 25° C., 60% RH and 40° C., 75% RH
Method: The spray dried particles were collected in a reservoir attached to a cyclone, cooled down to room temperature and stored in sealed vials (room temperature, ambient relative humidity (RH)) prior to their characterisation at T0. After characterisation at T0, the spray dried solids were stored in open vials for 2 weeks (3 weeks for Comparative Example 1) in desiccators at 25° C., 60% RH and 40° C., 75% RH.

SMILES | compound of formula (I) dissolved / released after 60 minutes ([1]; fresh (T0), sodium laurylsulphate 0.5% (w/v), 900 ml, 37 °C, 100 rpm, 60 min) | activity against wild-type and resistant HIV strains [2] | water solubility of crystals [3] | compound of formula (I) dissolved after 60 minutes after storage ([1]; after storage at 40° C., 75% RH for three weeks, 60 min) [%] | compound of formula (I) dissolved / released after 30 minutes ([1]; fresh (T0), sodium laurylsulphate 0.5% (w/v), 900 ml, 37 °C, 100 rpm, 30 min) | formation of the crystalline form of the compound of formula (I) (X-ray) [4] | storage stability to visual inspection (colouration) [5]
O=C1CN(C(=O)c2cc(-c3cc(F)cc(Cl)c3)n(-c3ccc(F)c(Cl)c3)n2)CN1 [compound of formula (I)] | about 40% | highly active | only sparingly water-soluble |  |  |  | 
O=C1CN(C(=O)c2cc(-c3cc(F)cc(Cl)c3)n(-c3ccc(F)c(Cl)c3)n2)CN1 [Comparative Example 1] |  |  |  | 35 | about 60% | formation of a large amount of the crystalline form | storage stable
